Source: US7169770B2, “Method of enhancing reproductive performance in sows” (priority 2001, dated 2007)
Read-outs that look alike come from different tables or passages of the source.

What was measured:
sows [1] = conditions: cited from earlier work
sows (PIC Line C22) = experiment: Sow feeding trial: L-carnitine and/or chromium tris-picolinate top dress over two parities, reproductive performance; format: in vivo; conditions: for First service FR %: first service farrowing rate; for No. of sows Weaned parity 1: Second parity section; for first service farrowing rate: parity 2; for No. of sows Farrowed in parity 1 / No. of sows Farrowed in parity 2 / Number of sows removed from experiment: sow longevity table
Procedure: This experiment was conducted on a commercial 1,500 sow farrow-to-wean operation in central Kansas and used 599 sows (PIC Line C22). Experimental treatments were arranged in a 2×2 factorial with main effects of added L-carnitine (0 or 50 ppm) and chromium tris-picolinate (0 or 200 ppb). Sows were started on test on the first day of breeding. Each sow remained on the same treatment through gestation, lactation, and through a second gestation period (2 parities). During gestation, all sows were fed a grain sorghum-soybean meal-based diet formulated to contain 0.65% lysine, 0.83% Ca, and 0.76% P. In lactation, all sows were fed a grain sorghum-soybean meal based diet formulated to contain 1.10% lysine, 0.90% Ca, and 0.80% P (Table 3). Dietary treatments were provided via a corn-based top dress fed at 30 g/d. The top dress was formulated to provide 90 mg/d and 250 mg/d carnitine in gestation and lactation, respectively. Chromium tris-picolinate was provided at 360 mcg/d and 1,000 mcg/d during gestation and lactation, respectively. These inclusions were calculated to provide 50 mg/kg carnitine (CarniFeed, Lonza Inc., NJ) and 200 mcg/kg chromium (Chromapure, Lonza Inc., NJ) when sows were fed 4 lb/d of the gestation diet and 11 lb/d of the lactation diet. The top dress was added to the top of the feed box between meals in order to be consumed with the rest of the diet. The top dress was color-coded (1% dyed corncobs) by treatment to assure proper distribution of experimental treatments.
At farrowing, the number of pigs born alive, as stillborn, as mummies, and total born were recorded. Total born was the sum of the number of pigs born alive, stillborn, and mummies. Sows were rebred after weaning (15 d lactation) and remained on the same treatment until farrowing a second litter. […] Sows that were bred at the start of the study, but were later found open, were removed from the trial. Procedures and data collection were identical for the second gestation and lactation period. However, dietary treatments were not administered during the second lactation period.
Calculations were made to determine the total number of pigs born, born alive, as stillborns, or as mummies per sow for the two parities. Total number of pigs were calculated using only sows that initially farrowed, then completed the second parity, as well as calculated from all the sows that were actually started on test.
Data were analyzed using the MIXED procedure of SAS. Sow was the experimental unit for the analysis with parity, previous lactation length, and/or week of farrowing as a covariate (Table IV) for total born, number of pigs born alive, mummies, and stillborn. A chi-square statistic was calculated to determine differences among treatments when analyzing percent in estrus and farrowing rate.

sows [2] = conditions: 200 μg/kg of chromium fed to sows; Lindemann et al. (1995b); cited from earlier work
[3] = L-carnitine added to gestating sow diets, Musser et al. (1999b)
[4] = all sows started on test for two parities
[5] = sows that completed parity one, two parities
[6] = 200 μg/kg of chromium, Lindemann et al. (1995b), Hagen et al. (2000)

Compound	% estrus by d 7 (sows (PIC Line C22); First parity) [%]	% estrus by d 18 (sows (PIC Line C22); First parity) [%]	No. of pigs Born alive (sows (PIC Line C22); First parity)	No. of pigs Mummies (sows (PIC Line C22); First parity)	No. of pigs Stiliborn (sows (PIC Line C22); First parity)	No. of pigs Total born (sows (PIC Line C22); First parity)	No. of sows Farrowed (sows (PIC Line C22); First parity)	WEI d (wean to estrus interval) (sows (PIC Line C22); First parity) [days]	First service FR % (sows (PIC Line C22); First parity) [%]	% estrus by d 7 (sows (PIC Line C22); Second parity) [%]	% estrus by d 18 (sows (PIC Line C22); Second parity) [%]	No. of pigs Born alive (sows (PIC Line C22); Second parity)	No. of pigs Mummies (sows (PIC Line C22); Second parity)	No. of pigs Stiliborn (sows (PIC Line C22); Second parity)	No. of pigs Total born (sows (PIC Line C22); Second parity)	No. of sows Bred by d 18 (sows (PIC Line C22); Second parity)	No. of sows Farrowed (sows (PIC Line C22); Second parity)	Percentage of weaned parity 1 sows that farrowed parity 2 (sows (PIC Line C22); Second parity) [%]	WEI (wean to estrus interval) (sows (PIC Line C22); Second parity)	No. of sows Weaned parity 1 (sows (PIC Line C22))	also measured
C[N+](C)(C)C[C@H](O)CC(=O)[O-] [Carnitine, L-carnitine]	88.6	91.5	9.8	0.26	0.98	11.4	140	4.6	91.9	76.9	80.8	9.9	0.33	1.02	11.2	128	104	73.9	4.7	140	farrowing rate, total number of pigs born or born alive (sows [1]; 50 mg/kg of carnitine during lactation, three experiments, Musser et al. (1999a)): minimal differences; farrowing rate (sows [1]; [3]): no effect; number of pigs born alive in the subsequent parity (sows [1]; [3]): increase; total number of pigs born and born alive (sows [1]; L-carnitine fed during gestation, Musser et al. (1999a)): increases; First service FR % (sows (PIC Line C22); Second parity): 81.3%; Total pigs per sow, Born alive (sows (PIC Line C22); [4]): 16.3; Total pigs per sow, Mummies (sows (PIC Line C22); [4]): 0.5; Total pigs per sow, Stillborn (sows (PIC Line C22); [4]): 1.6; Total pigs per sow, Total born (sows (PIC Line C22); [4]): 18.4; first service farrowing rate (sows (PIC Line C22); result in words): did not influence; No. of sows Farrowed in parity 1 (sows (PIC Line C22)): 140; No. of sows Farrowed in parity 2 (sows (PIC Line C22)): 104; Number of sows removed from experiment (sows (PIC Line C22)): 46; Total pigs per sow, Born alive (sows (PIC Line C22); [5]): 17.6; Total pigs per sow, Mummies (sows (PIC Line C22); [5]): 0.5; Total pigs per sow, Stillborn (sows (PIC Line C22); [5]): 1.7; Total pigs per sow, Total born (sows (PIC Line C22); [5]): 19.8
chromium tris-picolinate	86.7	91.7	10.2	0.39	1.26	11.5	138	4.7	95.5	81.0	82.9	9.5	0.40	1.09	11.0	127	102	74.3	4.6	138	farrowing rate (sows [1]; [6]): no effects; number of pigs born alive (sows [1]; [6]): increases; First service FR % (sows (PIC Line C22); Second parity): 79.7%; Total pigs per sow, Born alive (sows (PIC Line C22); [4]): 16.2; Total pigs per sow, Mummies (sows (PIC Line C22); [4]): 0.7; Total pigs per sow, Stillborn (sows (PIC Line C22); [4]): 2.0; Total pigs per sow, Total born (sows (PIC Line C22); [4]): 18.8; farrowing rate (sows (PIC Line C22); our study, result in words): increases; number born alive (sows (PIC Line C22); our study, result in words): no improvements; number of stillborn pigs per litter (sows (PIC Line C22); our study, result in words): tendencies to increase; first service farrowing rate (sows (PIC Line C22); result in words): did not influence; No. of sows Farrowed in parity 1 (sows (PIC Line C22)): 138; No. of sows Farrowed in parity 2 (sows (PIC Line C22)): 102; Number of sows removed from experiment (sows (PIC Line C22)): 45; Total pigs per sow, Born alive (sows (PIC Line C22); [5]): 16.8; Total pigs per sow, Mummies (sows (PIC Line C22); [5]): 0.6; Total pigs per sow, Stillborn (sows (PIC Line C22); [5]): 2.1; Total pigs per sow, Total born (sows (PIC Line C22); [5]): 19.5; plasma insulin and insulin to glucose ratio (sows [2]): decreased
